Literature values in patent US11400063B2, “Early administration of low-dose colchicine after myocardial infarction” (INSTITUT DE CARDIOLOGIE DE MONTREAL, priority 2019, dated 2022).

Legend:
stable coronary disease = conditions: CANTOS; cited from earlier work
[1] = CIRT; cited from earlier work

| Compound | incidence of fatal infections (stable coronary disease) | lower risk of cardiovascular events than with placebo (stable coronary disease) | cardiovascular outcomes or plasma markers of inflammation [1] |
| --- | --- | --- | --- |
| canakinumab: injectable monoclonal antibody inhibiting interleukin-1β | slightly higher incidence | 15% |  |
| CN(Cc1cnc2nc(N)nc(N)c2n1)c1ccc(C(=O)N[C@@H](CCC(=O)O)C(=O)O)cc1 [methotrexate] |  |  | did not affect |
